Results from patent publication US20060122279A1, “Hydrophobic polyamine amides as potent lipopolysaccharide sequestrants” (priority 2004, published 2006).
Several values for one entry are separate records, joined by “and”; a condition that tells them apart may be missing. Equal entries are not always repeated. Where two headings read alike, the source gives them in different places.

Legend:
[1] = test system: NFκB; assay: NFκB inhibition (LPS-induced); format: cell-based; settings: for IC50: Table 7 focused library, NFκB inhibition, read-out: NFκ B
Excerpt: A focused library of alkyl or acyl c-substituted lysine-spermine conjugates is synthesized with even carbon-numbered chains of C14 to C20 lengths. […] Furthermore, the data showhigh activity compounds are those with chain lengths between C16 and C20. […] The exemplary compounds L-Lys-ε-(stearoyl)-N^1-spermine, D-Lys-ε-(stearoyl)-N^1-spermine, L-Lys-ε-(octadecanyl)-N^1-spermine and D-Lys-ε-(octadecanyl)—N1-spermine all show high activity for the prevention of LPS-induced NFκβ cytokine release from stimulated lymphocytes. Furthermore, the exemplary compounds L-Lys-ε-(stearoyl)-N^1-spermine, D-Lys-ε-(stearoyl)-N^1-spermine, L-Lys-ε-(octadecanyl)-N^1-spermine and D-Lys-ε-(octadecanyl)-N^1-spermine all show high activity for the prevention of LPS-induced NO release from stimulated lymphocytes.

[2] = test system: murine macrophage J774.A1 cells; assay: Nitric oxide (NO) inhibition in LPS-stimulated J774.A1 cells (Griess); format: cell-based
Experimental: Murine monocytes (J774.A1 cells) produce measurable quantities of NO on exposure to LPS and provide a model for the rapid assessment of compounds to neutralize LPS activity. […] In all experiments, Polymyxin B (PMB), a decapeptide antibiotic, known to bind and neutralize LPS,^29;47;48 is used as a reference compound.
Nitric oxide production is measured as total nitrite in murine macrophage J774.A1 cells using the Griess reagent system.^53;54 Murine macrophage J774.A1 cells are grown in RPMI-1640 cell-culture medium containing L-glutamine and sodium bicarbonate and supplemented with 10% fetal bovine serum, 1% L-glutamine-penicillin-streptomycin solution, and 200 μg/ml L-arginine at 37° C. in a 5% CO2 atmosphere. Cells are plated at ˜2×10^6/ml in a volume of 40 μl/well, in 384 well, flat-bottomed, cell culture treated microtiter plates until confluency and subsequently stimulated with 100 ng/ml lipopolysaccharide (LPS). Concurrent to LPS stimulation, serially diluted concentrations of test compounds are added to the cell medium and left to incubate overnight for 16 h. Polymyxin B is used as reference compound in each plate. Positive—(LPS stimulation only) and negative-controls (J774.A1 medium only) are included in each experiment. Nitrite concentrations are measured adding 30 μl of supernatant to equal volumes of Griess reagents (50 μl/well; 0.1% NED solution in ddH2O and 1% sulfanilamide, 5% phosphoric acid solution in ddH2O) and incubating for 15 minutes at room temperature in the dark. Absorbance at 535 nm is measured using a Molecular Devices Spectramax M2 multifunction plate reader (Sunnyvale, Calif.). Nitrite concentrations are interpolated from standard curves obtained from serially diluted sodium nitrite standards.

[3] = format: binding, E. coli 0111:B4; settings: E. coli 0111:B4 LPS; Tables 1-3; read-out: ED50 (half-maximal effective displacement of BC probe from LPS)
Experimental: Polymyxin B (PMB), a peptide antibiotic known to bind and neutralize LPS^47 serves as the positive control and reference compound for every plate, enabling the quantitative assessment of repeatability and reproducibility (CV and Z′ factors) for the assay. Robotic liquid handling is performed on a Precision 2000 automated microplate pipetting system, programmed using the Precision Power software, Bio-Tek Instruments Inc., VT, USA. Stock solutions of LPS (5 mg/ml; E. coli 0111:B4; procured from Sigma) and BC (500 μM) are prepared in Tris buffer (pH 7.4, 50 mM). 1 ml each of the LPS and BC stocks are mixed and diluted in Tris buffer to a final volume of 100 ml, yielding final concentrations of 50 μg/ml of LPS and 5 μM BC. 40 μl of this BC:LPS mixture is added to each well of the plate using the Precision 2000. Fluorescence measurements are made at 25° C. on a Fluoromax-3 with Micromax Microwell 384-well plate reader, using DataMax software, Jobin Yvon Inc., N.J. The BC excitation wavelength is 580 nm, emission spectra are taken at 620 nm with both emission and excitation monochromator bandpasses set at 5 nm.

[4] = test system: CF-1 mice; settings: previous studies (ref. 37); cited from earlier work
[5] = J774.A1 cells, 100 ng/ml LPS, 16 h, Tables 1-3, read-out: NO IC50
[6] = Mus musculus, J774.A1, 16 h, J774.A1 cells, 100 ng/ml LPS, 16 h, Tables 1-3, read-out: NO IC50
[7] = Mus musculus, J774.A1, Table 7 focused library, NO inhibition, read-out: NO

Work on CCCCCCCCCCCCCCCCCCCC(=O)NCCCCC(N)C(=O)NCCCNCCCCNCCCN [Compound 7, L-Lys-ε-(eicosanoyl)-N^1-spermine] yielded an IC50 [1] of 1.24 µM, an IC50 [2, 5] of 1.21 µM and an IC50 [2, 6] of 1.2 µM. For the same compound, the IC50 [2, 7] was 4.69 µM and the EC50 [3] was 6.46 µM.

In the case of CCCCCCCC/C=C\CCCCCCCC(=O)OCC(COC(=O)CCCCCCC/C=C\CCCCCCCC)NC(=O)C(CCCNCCCN)NCCCN (stereo not drawn) [DOSPER], the window of protection [4] is given as 15 min.

In the case of CCCCCCCCCCCCCCCCCC(=O)NCCCCC(N)C(=O)NCCCNCCCCNCCCN [Compound 9, L-Lys-ε-(stearoyl)-N^1-spermine], the IC50 [1] is reported as 0.736 µM, the “prevention of LPS-induced NFκβ cytokine release from stimulated lymphocytes” value ([1]; in words) is reported as “high activity” and the IC50 [2, 5] is reported as 18.1 µM. For the same compound, the IC50 [2, 7] was 8.78 µM, the “prevention of LPS-induced NO release from J774.A1 macrophages” value ([2]; in words) was “high activity” and the EC50 [3] was 16 µM and 16.4 µM.

With CCCCCCCCCCCCCCCC(=O)NCCCCC(N)C(=O)NCCCNCCCCNCCCN [Compound 14, L-Lys(palmitoyl)-N^1-spermine] the IC50 [1] was 0.819 µM, the IC50 [2, 5] was 6.41 µM and the IC50 [2, 7] was 16.8 µM. For the same compound, the IC50 ([2]; read-out: NO IC50, J774.A1 cells, 100 ng/ml LPS, 16 h, Tables 1-3) was 6.4 µM and the EC50 [3] was 11 µM and 10.7 µM.

CCCCCCCCCCCCCC(=O)NCCCCC(N)C(=O)NCCCNCCCCNCCCN [Compound 16, L-Lys-ε-(myristoyl)-N^1-spermine] gave an IC50 [1] of 0.753 µM, an IC50 [2, 6] of 1.6 µM and an IC50 [2, 7] of 22.2 µM. The EC50 [3] was 5.63 µM.
